Data set [1] deals with T1, Prostaglandin G/H synthase 2 (Homo sapiens, UniProt P35354).
T1 sequence (P35354 whole entry): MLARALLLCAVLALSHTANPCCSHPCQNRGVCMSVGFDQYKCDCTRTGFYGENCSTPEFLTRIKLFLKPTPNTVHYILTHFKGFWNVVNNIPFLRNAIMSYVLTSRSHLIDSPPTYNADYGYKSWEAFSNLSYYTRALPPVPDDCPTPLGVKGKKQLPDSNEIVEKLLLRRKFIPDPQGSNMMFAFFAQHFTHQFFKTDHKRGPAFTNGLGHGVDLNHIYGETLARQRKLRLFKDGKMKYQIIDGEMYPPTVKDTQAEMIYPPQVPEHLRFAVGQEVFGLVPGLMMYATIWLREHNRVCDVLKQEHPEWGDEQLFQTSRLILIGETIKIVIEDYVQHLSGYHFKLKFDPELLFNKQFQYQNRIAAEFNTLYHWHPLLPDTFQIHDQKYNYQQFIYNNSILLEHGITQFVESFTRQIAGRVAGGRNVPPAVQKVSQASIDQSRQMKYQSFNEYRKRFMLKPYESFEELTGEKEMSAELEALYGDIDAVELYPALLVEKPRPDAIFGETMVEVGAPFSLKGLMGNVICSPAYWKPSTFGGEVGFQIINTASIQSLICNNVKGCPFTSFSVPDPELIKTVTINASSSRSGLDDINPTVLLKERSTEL
It is filed as cell-based, COS.

For data set [2], the target named is T2, Prostaglandin G/H synthase 1 (Homo sapiens, UniProt P23219). Briefly: biochemical. The class given is cell-based, COS.
A further data set concerns COS. Briefly: Selectivity ratio of IC50 for human COX1 to IC50 for human COX2 expressed in african green monkey COS cells. It is filed as cell-based.
In data set [3] the target is T1, Prostaglandin G/H synthase 2. Kind of data set: biochemical. It is filed as cell-based, Sf9.
Data set [4] addresses T2, Prostaglandin G/H synthase 1. Briefly: biochemical. It is filed as cell-based, Sf9.
The nature of data set [5]: Selectivity ratio of IC50 for human COX1 to IC50 for human COX2 expressed in baculovirus-infected SF9 cells.
Data set [6] addresses T2, Prostaglandin G/H synthase 1. It is filed as tissue-based, Blood.
Data set [7] has as its target T1, Prostaglandin G/H synthase 2. It is filed as tissue-based, Blood.
Description: Inhibition of COX2 in human whole blood assessed as inhibition of lipopolysaccharide-stimulated PGE2 production after 24 hrs by enzyme immunoassay
The species entered for another data set is Homo sapiens. Briefly: Selectivity ratio of IC50 for COX1 to IC50 for COX2 in human whole blood. It is filed as tissue-based.
Another data set can be described thus: in vivo. To be noted: rat, brain / blood.

Calls of active or inactive are those of the source. No cut-off for these calls is given here.

T2 sequence (P23219 whole entry): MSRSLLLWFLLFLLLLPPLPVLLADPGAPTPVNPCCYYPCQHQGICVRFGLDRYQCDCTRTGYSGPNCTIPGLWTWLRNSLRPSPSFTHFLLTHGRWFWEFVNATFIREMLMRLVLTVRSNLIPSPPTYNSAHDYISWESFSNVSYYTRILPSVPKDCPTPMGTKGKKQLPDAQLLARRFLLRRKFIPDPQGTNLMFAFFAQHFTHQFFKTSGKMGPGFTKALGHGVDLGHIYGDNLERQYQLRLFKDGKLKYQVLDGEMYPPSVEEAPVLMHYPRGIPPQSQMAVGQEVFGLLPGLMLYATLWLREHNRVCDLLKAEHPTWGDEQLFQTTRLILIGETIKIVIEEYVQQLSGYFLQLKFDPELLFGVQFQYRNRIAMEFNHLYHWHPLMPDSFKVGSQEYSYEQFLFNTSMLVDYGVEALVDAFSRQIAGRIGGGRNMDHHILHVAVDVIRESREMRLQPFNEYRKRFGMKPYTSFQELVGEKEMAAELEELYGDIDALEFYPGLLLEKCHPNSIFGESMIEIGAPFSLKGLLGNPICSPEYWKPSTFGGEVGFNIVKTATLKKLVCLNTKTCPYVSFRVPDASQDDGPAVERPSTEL
Description for in vivo: Ratio of drug level in brain to blood in rat

Turning to `CS(=O)(=O)c1ccc(-c2cc(C(F)(F)F)nc(Nc3ccccc3)n2)cc1`, the figures for the concentration for half-maximal inhibition (IC50) in data set [1] and in data set [2] were 5.6 nM and above 100 µM, respectively. The Ratio IC50 in the data set with COS is above 17900.
Take `CS(=O)(=O)c1ccc(-c2cc(C(F)(F)F)nc(OC3CCCCCC3)n2)cc1`: the IC50 in data set [3] was below 10 nM; in [4], 1.92 µM. In addition, the Ratio IC50 in data set [5] was above 192.
With `CC(C)Oc1nc(-c2ccc(S(C)(=O)=O)cc2)cc(C(F)(F)F)n1`, the IC50 in [3] amounted to 63 nM; in data set [4], 52.6 µM. Further, in [5], the Ratio IC50 is 834.
As for `CCCCNc1nc(-c2ccc(S(N)(=O)=O)cc2)cc(C(F)(F)F)n1`, the IC50 in data set [1] is below 1.4 nM; in [2], 0.7 µM. In the data set on COS, the Ratio IC50 was above 500.
On the same counts, the results for `Cc1ccc(Nc2nc(-c3ccc(S(C)(=O)=O)cc3)cc(C(F)(F)F)n2)cc1` are 11 nM, above 100 µM and above 9090.
`Cc1ccc(-c2ncc(Cl)cc2-c2ccc(S(C)(=O)=O)cc2)cn1` [ETORICOXIB] gave an IC50 in [6] above 100 µM.
`Cc1cccc(Oc2nc(-c3ccc(S(C)(=O)=O)cc3)cc(C(F)(F)F)n2)c1`: the IC50 in data set [3] was below 10 nM; in data set [4], 4.36 µM. The Ratio IC50 in [5] was above 436.
With `CS(=O)(=O)c1ccc(-c2ccnc(NC3CCCCC3)n2)cc1`, the 50% inhibitory concentration (IC50) in data set [1] is above 10000 nM; in data set [2], above 100 µM. Moreover, in the data set on COS, the “Ratio IC50” value was “inactive”.
In turn, `CS(=O)(=O)c1ccc(-c2cc(C(F)(F)F)nc(OCC3CCCCCC3)n2)cc1` had an IC50 in data set [3] of 1030 nM. Moreover, in [5], the “Ratio IC50” value is “inactive”.
As for `CS(=O)(=O)c1ccc(-c2cc(C(F)(F)F)nc(OCC3CCCCC3)n2)cc1`, the figures for the half-inhibitory concentration (IC50) in data set [3] and in data set [4] were 45 nM and above 100 µM, respectively. Moreover, the Ratio IC50 in data set [5] is above 2220.
On the same counts, the results for `CC(C)(C)Oc1nc(-c2ccc(S(C)(=O)=O)cc2)cc(C(F)(F)F)n1` are 33 nM, 52 µM and 1580.
Take `CS(=O)(=O)c1ccc(-c2cc(C(F)(F)F)nc(NCc3ccccc3)n2)cc1`: the IC50 is above 100 µM in [2], 8 nM in [7] and 39.3 µM in [6]. Also, the Ratio IC50 in the data set on COS is above 400000; in the data set filed under Homo sapiens, 4910.
`CS(=O)(=O)c1ccc(-c2cc(C(F)(F)F)nc(OC3CCCC3)n2)cc1`: the figures for the 50% inhibitory concentration (IC50) in data set [3] and in data set [4] were below 10 nM and 4.04 µM, respectively. Moreover, the Ratio IC50 in data set [5] is above 404.
On to `Cc1ccc(CNc2nc(-c3ccc(S(C)(=O)=O)cc3)cc(C(F)(F)F)n2)cc1`, for which the IC50 in data set [1] was below 10 nM; in data set [2] it was above 100 µM. In addition, in the data set on COS, the Ratio IC50 was above 10000.
In the case of `CS(=O)(=O)c1ccc(-c2cc(C(F)(F)F)nc(OC3CCCCCCC3)n2)cc1`, the results for the IC50 in data set [3] and in [4] were below 10 nM and 3 µM, respectively. Further, the Ratio IC50 in [5] is above 300.
For `CS(=O)(=O)c1ccc(-c2cc(C(F)(F)F)nc(NC3CCCCC3)n2)cc1`, the IC50 is above 58.4 µM in data set [2], 62 nM in [7] and 11.6 µM in data set [6]. The Ratio IC50 was above 117000 with COS and 187 in the data set listed under Homo sapiens.
As to `CS(=O)(=O)c1ccc(-c2cc(C(F)(F)F)nc(NCC3CCCCC3)n2)cc1`, the IC50 is 29 nM in [1] and above 100 µM in [2]. In addition, the Ratio IC50 with COS is above 3450.
In the case of `CS(=O)(=O)c1ccc(-c2cc(C(F)(F)F)nc(OC3CCC3)n2)cc1`, the IC50 is below 10 nM in [3] and 19 µM in [4]. In data set [5], the Ratio IC50 was above 1900.
With `CCCNc1nc(-c2ccc(S(C)(=O)=O)cc2)cc(C(F)(F)F)n1`, the half-inhibitory concentration (IC50) was 5 nM in data set [1] and above 100 µM in data set [2]. Besides, the Ratio IC50 in the data set with COS is above 2000.
`CS(=O)(=O)c1ccc(C2=C(c3ccccc3)C(=O)OC2)cc1` [ROFECOXIB] yielded a partition ratio (Kp) in the data set “in vivo” of 0.8.
Take `CS(=O)(=O)c1ccc(-c2cc(OCC(F)(F)F)nc(NC3CCCCC3)n2)cc1`: the half-inhibitory concentration (IC50) came out at 16 nM in data set [1] and 6.32 µM in [2]. The Ratio IC50 in the data set on COS worked out at 395.
Regarding `CCCCNc1nc(-c2ccc(S(C)(=O)=O)cc2)cc(C(F)(F)F)n1`, the concentration for half-maximal inhibition (IC50) in data set [1] is 1.3 nM; in [2] it was above 100 µM; in [7], 70 nM; in data set [6], above 96.2 µM. For the same compound, the Ratio IC50 was above 76900 with COS and above 1370 in the data set filed under Homo sapiens.
Take `CS(=O)(=O)c1ccc(-c2cc(C(F)(F)F)nc(NC3CCOCC3)n2)cc1`: in data set [2], the IC50 was above 91.6 µM. Also, the Ratio IC50 in the data set on COS was above 5090.
Take `CS(=O)(=O)c1ccc(-c2cc(C(N)=O)nc(NC3CCCCC3)n2)cc1`: the half-inhibitory concentration (IC50) in [1] was above 10000 nM; in data set [2], above 100 µM. Besides, in the data set with COS, the “Ratio IC50” value is “inactive”.
On the same counts, the results for `CS(=O)(=O)c1ccc(-c2cc(C(F)(F)F)nc(NC3CCNCC3)n2)cc1` are above 10000 nM, above 100 µM and “inactive”.
Take `Cc1c(-c2ccc(S(C)(=O)=O)cc2)nc(NC2CCCCC2)nc1C(F)(F)F`: the concentration for half-maximal inhibition (IC50) in [1] was above 10000 nM; in [2] it was above 100 µM. Besides, the “Ratio IC50” value in the data set with COS was “inactive”.
On the same counts, the results for `CS(=O)(=O)c1ccc(-c2cc(C(F)(F)F)nc(Nc3ccc(F)cc3)n2)cc1` are 7.2 nM, above 65.8 µM and above 9140.
On the same counts, the results for `Cc1cc(-c2ccc(S(C)(=O)=O)cc2)nc(NC2CCCCC2)n1` are 1680 nM, above 100 µM and above 59.
On the same counts, the results for `CS(=O)(=O)c1ccc(-c2cc(C(F)(F)F)nc(NCC3CCOCC3)n2)cc1` are 5 nM, 100 µM and 20000.
With `NS(=O)(=O)c1ccc(-c2cc(C(F)(F)F)nc(NC3CCCCC3)n2)cc1`, the IC50 was determined as 2.4 nM in [1] and 0.167 µM in [2]. In addition, the Ratio IC50 in the data set with COS worked out at 69.5.
`CS(=O)(=O)c1ccc(-c2cc(C(F)(F)F)nc(N)n2)cc1`: the concentration for half-maximal inhibition (IC50) in data set [1] is 272 nM; in [2] it was above 100 µM. In addition, the Ratio IC50 in the data set with COS is above 368.
For `Cc1cnc(NC2CCCCC2)nc1-c1ccc(S(C)(=O)=O)cc1`, the IC50 in [1] is above 10000 nM; in data set [2], above 100 µM. Also, the “Ratio IC50” value with COS is “inactive”.
For `CS(=O)(=O)c1ccc(-c2cc(N)nc(NC3CCCCC3)n2)cc1` the same measures were above 10000 nM, above 100 µM and “inactive”.
On to `CS(=O)(=O)c1ccc(-c2cc(C(=O)O)nc(NC3CCCCC3)n2)cc1`, for which the figures for the concentration for half-maximal inhibition (IC50) in [1] and in [2] were above 10000 nM and above 100 µM, respectively. For the same compound, in the data set on COS, the “Ratio IC50” value is “inactive”.
For the compound `Cc1ccc(N(C)c2nc(-c3ccc(S(C)(=O)=O)cc3)cc(C(F)(F)F)n2)cc1`, the 50% inhibitory concentration (IC50) in [1] was 3 nM; in data set [2], above 74.2 µM. Also, in the data set on COS, the Ratio IC50 was above 24700.
As for `Cc1ccc(Oc2nc(-c3ccc(S(C)(=O)=O)cc3)cc(C(F)(F)F)n2)cc1`, the Ratio IC50 in data set [5] is above 375.

The values are drawn from ChEMBL document CHEMBL1153635, “Identification of [4-[4-(methylsulfonyl)phenyl]-6-(trifluoromethyl)-2-pyrimidinyl] amines and ethers as potent and selective cyclooxygenase-2 inhibitors” (Bioorg Med Chem Lett, 2009).
